{"source": "patent US8956999B2", "about": "“Herbicides” (Syngenta Limited, priority 2007, dated 2015)", "type_in_all_cases": "in vivo", "key": {"[1]": {"system": "Alopecurus myosuroides (ALOMY)", "assay": "Example A pre-emergence herbicidal test, glasshouse", "details": "rate 250 g/ha, evaluated after 20 days, 100=total damage to plant, 0=no damage to plant", "method": "(§1) Seeds of a variety of test species were sown in standard soil in pots. After cultivation for one day (pre-emergence) or after 10 days cultivation (post-emergence) under controlled conditions in a glasshouse, the plants were sprayed with an aqueous spray solution derived from the formulation of the technical active ingredient in 0.6 ml acetone and 45 ml formulation solution containing 10.6% Emulsogen EL (Registry number 61791-12-6), 42.2% N-methylpyrrolidone, 42.2% dipropylene glycol monomethyl ether (Registry number 34590-94-8) and 0.2% X-77 (Registry number 11097-66-8). The test plants were then grown in a greenhouse under optimum conditions until, 14 or 15 days later for post-emergence and 20 days for pre-emergence, the test was evaluated (100=total damage to plant; 0=no damage to plant). Test Plants: Alopecurus myosuroides (ALOMY), Avena fatua (AVEFA), Lolium perenne (LOLPE), Setaria faberi (SETFA), Digitaria sanguinalis (DIGSA), Echinochloa crus-galli (ECHCG)"}, "Avena fatua (AVEFA) [2]": {"system": "Avena fatua (AVEFA)", "assay": "Example A pre-emergence herbicidal test, glasshouse", "details": "rate 250 g/ha, evaluated after 20 days, 100=total damage to plant, 0=no damage to plant", "method": "as §1"}, "[3]": {"system": "Digitaria sanguinalis (DIGSA)", "assay": "Example A pre-emergence herbicidal test, glasshouse", "details": "rate 250 g/ha, evaluated after 20 days, 100=total damage to plant, 0=no damage to plant", "method": "as §1"}, "[4]": {"system": "Echinochloa crus-galli (ECHCG)", "assay": "Example A pre-emergence herbicidal test, glasshouse", "details": "rate 250 g/ha, evaluated after 20 days, 100=total damage to plant, 0=no damage to plant", "method": "as §1"}, "Lolium perenne (LOLPE) [5]": {"system": "Lolium perenne (LOLPE)", "assay": "Example A pre-emergence herbicidal test, glasshouse", "details": "rate 250 g/ha, evaluated after 20 days, 100=total damage to plant, 0=no damage to plant", "method": "as §1"}, "Setaria faberi (SETFA) [6]": {"system": "Setaria faberi (SETFA)", "assay": "Example A pre-emergence herbicidal test, glasshouse", "details": "rate 250 g/ha, evaluated after 20 days, 100=total damage to plant, 0=no damage to plant", "method": "as §1"}, "[7]": {"system": "Alopecurus myosuroides (ALOMY)", "assay": "Example A post-emergence herbicidal test, glasshouse", "details": "rate 125 g/ha, evaluated 14 or 15 days later, 100=total damage to plant, 0=no damage to plant", "method": "as §1"}, "Avena fatua (AVEFA) [8]": {"system": "Avena fatua (AVEFA)", "assay": "Example A post-emergence herbicidal test, glasshouse", "details": "rate 125 g/ha, evaluated 14 or 15 days later, 100=total damage to plant, 0=no damage to plant", "method": "as §1"}, "[9]": {"system": "Digitaria sanguinalis (DIGSA)", "assay": "Example A post-emergence herbicidal test, glasshouse", "details": "rate 125 g/ha, evaluated 14 or 15 days later, 100=total damage to plant, 0=no damage to plant", "method": "as §1"}, "[10]": {"system": "Echinochloa crus-galli (ECHCG)", "assay": "Example A post-emergence herbicidal test, glasshouse", "details": "rate 125 g/ha, evaluated 14 or 15 days later, 100=total damage to plant, 0=no damage to plant", "method": "as §1"}, "Lolium perenne (LOLPE) [11]": {"system": "Lolium perenne (LOLPE)", "assay": "Example A post-emergence herbicidal test, glasshouse", "details": "rate 125 g/ha, evaluated 14 or 15 days later, 100=total damage to plant, 0=no damage to plant", "method": "as §1"}, "Setaria faberi (SETFA) [12]": {"system": "Setaria faberi (SETFA)", "assay": "Example A post-emergence herbicidal test, glasshouse", "details": "rate 125 g/ha, evaluated 14 or 15 days later, 100=total damage to plant, 0=no damage to plant", "method": "as §1"}, "[13]": {"system": "Alopecurus myosuroides (ALOMY)", "assay": "Example B post-emergence herbicidal test, glasshouse", "details": "312 h, rate 1000 g/ha, evaluated after 13 days, read-out: Post-Emergence Activity ALOMY (100=total damage to plant; 0=no damage to plant)", "outline": "(§2)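 Seeds sown in standard soil; sprayed 1 day after sowing (pre-emergence) or after 8 days' growth (post-emergence) with aqueous spray from formulation in acetone/water 50:50 with 0.5% Tween 20. Glasshouse 24/16 °C day/night, 14 h light, 65% humidity; damage scored after 13 days (0 none, 100 total).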"}, "[14]": {"system": "Amaranthus retoflexus (AMARE)", "assay": "Example B post-emergence herbicidal test, glasshouse", "details": "Amaranthus retroflexus, 312 h, rate 1000 g/ha, evaluated after 13 days, read-out: Post-Emergence Activity AMARE (100=total damage to plant; 0=no damage to plant)", "outline": "as §2"}, "Avena fatua (AVEFA) [15]": {"system": "Avena fatua (AVEFA)", "assay": "Example B post-emergence herbicidal test, glasshouse", "details": "312 h, rate 1000 g/ha, evaluated after 13 days, read-out: Post-Emergence Activity AVEFA (100=total damage to plant; 0=no damage to plant)", "outline": "as §2"}, "[16]": {"system": "Echinochloa crus-galli (ECHCG)", "assay": "Example B post-emergence herbicidal test, glasshouse", "details": "312 h, rate 1000 g/ha, evaluated after 13 days, read-out: Post-Emergence Activity ECHCG (100=total damage to plant; 0=no damage to plant)", "outline": "as §2"}, "Setaria faberi (SETFA) [17]": {"system": "Setaria faberi (SETFA)", "assay": "Example B post-emergence herbicidal test, glasshouse", "details": "312 h, rate 1000 g/ha, evaluated after 13 days, read-out: Post-Emergence Activity SETFA (100=total damage to plant; 0=no damage to plant)", "outline": "as §2"}, "Solanum nigrum (SOLNI)": {"system": "Solanum nigrum (SOLNI)", "assay": "Example B post-emergence herbicidal test, glasshouse", "details": "312 h, rate 1000 g/ha, evaluated after 13 days, read-out: Post-Emergence Activity SOLNI (100=total damage to plant; 0=no damage to plant)", "outline": "as §2"}}}
{"smiles": "CCc1sc(-c2ccc(Cl)cc2)nc1C1C(=O)C(C)(C)C(=O)C(C)(C)C1=O", "note": "[Compound T6]", "values": [{"measurement": "Pre-Emergence Activity ALOMY", "setting": "[1]", "value": 50}, {"measurement": "Pre-Emergence Activity AVEFA", "setting": "Avena fatua (AVEFA) [2]", "value": 20}, {"measurement": "Pre-Emergence Activity DIGSA", "setting": "[3]", "value": 70}, {"measurement": "Pre-Emergence Activity ECHCG", "setting": "[4]", "value": 50}, {"measurement": "Pre-Emergence Activity LOLPE", "setting": "Lolium perenne (LOLPE) [5]", "value": 80}, {"measurement": "Pre-Emergence Activity SETFA", "setting": "Setaria faberi (SETFA) [6]", "value": 60}, {"measurement": "Post-Emergence Activity ALOMY", "setting": "[7]", "value": 70}, {"measurement": "Post-Emergence Activity AVEFA", "setting": "Avena fatua (AVEFA) [8]", "value": 60}, {"measurement": "Post-Emergence Activity DIGSA", "setting": "[9]", "value": 70}, {"measurement": "Post-Emergence Activity ECHCG", "setting": "[10]", "value": 70}, {"measurement": "Post-Emergence Activity LOLPE", "setting": "Lolium perenne (LOLPE) [11]", "value": 30}, {"measurement": "Post-Emergence Activity SETFA", "setting": "Setaria faberi (SETFA) [12]", "value": 70}, {"measurement": "pest or weed control at 1000 g/ha", "setting": "[13]", "value": 90, "unit": "%"}, {"measurement": "pest or weed control at 1000 g/ha", "setting": "[14]", "value": 0, "unit": "%"}, {"measurement": "pest or weed control at 1000 g/ha", "setting": "Avena fatua (AVEFA) [15]", "value": 90, "unit": "%"}, {"measurement": "pest or weed control at 1000 g/ha", "setting": "[16]", "value": 90, "unit": "%"}, {"measurement": "pest or weed control at 1000 g/ha", "setting": "Setaria faberi (SETFA) [17]", "value": 100, "unit": "%"}, {"measurement": "pest or weed control at 1000 g/ha", "setting": "Solanum nigrum (SOLNI)", "value": 0, "unit": "%"}]}
{"smiles": "CCc1sc(-c2ccc(Cl)cc2)nc1C1C(=O)C(C)(C)OC(C)(C)C1=O", "note": "[Compound T11, 4-[2-(4-chlorophenyl)-5-ethylthiazol-4-yl]-2,2,6,6-tetramethylpyran-3,5-dione]", "values": [{"measurement": "Pre-Emergence Activity ALOMY", "setting": "[1]", "value": 100}, {"measurement": "Pre-Emergence Activity AVEFA", "setting": "Avena fatua (AVEFA) [2]", "value": 100}, {"measurement": "Pre-Emergence Activity DIGSA", "setting": "[3]", "value": 100}, {"measurement": "Pre-Emergence Activity ECHCG", "setting": "[4]", "value": 100}, {"measurement": "Pre-Emergence Activity LOLPE", "setting": "Lolium perenne (LOLPE) [5]", "value": 100}, {"measurement": "Pre-Emergence Activity SETFA", "setting": "Setaria faberi (SETFA) [6]", "value": 100}, {"measurement": "Post-Emergence Activity ALOMY", "setting": "[7]", "value": 90}, {"measurement": "Post-Emergence Activity AVEFA", "setting": "Avena fatua (AVEFA) [8]", "value": 80}, {"measurement": "Post-Emergence Activity DIGSA", "setting": "[9]", "value": 100}, {"measurement": "Post-Emergence Activity ECHCG", "setting": "[10]", "value": 100}, {"measurement": "Post-Emergence Activity LOLPE", "setting": "Lolium perenne (LOLPE) [11]", "value": 60}, {"measurement": "Post-Emergence Activity SETFA", "setting": "Setaria faberi (SETFA) [12]", "value": 100}]}
{"smiles": "Cc1sc(-c2ccc(Cl)cc2)cc1C1C(=O)C(C)(C)OC(C)(C)C1=O", "note": "[Compound T12]", "values": [{"measurement": "Pre-Emergence Activity ALOMY", "setting": "[1]", "value": 30}, {"measurement": "Pre-Emergence Activity AVEFA", "setting": "Avena fatua (AVEFA) [2]", "value": 0}, {"measurement": "Pre-Emergence Activity DIGSA", "setting": "[3]", "value": 20}, {"measurement": "Pre-Emergence Activity ECHCG", "setting": "[4]", "value": 40}, {"measurement": "Pre-Emergence Activity LOLPE", "setting": "Lolium perenne (LOLPE) [5]", "value": 0}, {"measurement": "Pre-Emergence Activity SETFA", "setting": "Setaria faberi (SETFA) [6]", "value": 0}, {"measurement": "Post-Emergence Activity ALOMY", "setting": "[7]", "value": 80}, {"measurement": "Post-Emergence Activity AVEFA", "setting": "Avena fatua (AVEFA) [8]", "value": 70}, {"measurement": "Post-Emergence Activity DIGSA", "setting": "[9]", "value": 90}, {"measurement": "Post-Emergence Activity ECHCG", "setting": "[10]", "value": 100}, {"measurement": "Post-Emergence Activity LOLPE", "setting": "Lolium perenne (LOLPE) [11]", "value": 70}, {"measurement": "Post-Emergence Activity SETFA", "setting": "Setaria faberi (SETFA) [12]", "value": 80}]}
{"smiles": "Cc1sc(-c2ccc(Cl)cc2)nc1C1C(=O)C(C)(C)OC(C)(C)C1=O", "note": "[Compound T13]", "values": [{"measurement": "Pre-Emergence Activity ALOMY", "setting": "[1]", "value": 100}, {"measurement": "Pre-Emergence Activity AVEFA", "setting": "Avena fatua (AVEFA) [2]", "value": 50}, {"measurement": "Pre-Emergence Activity DIGSA", "setting": "[3]", "value": 100}, {"measurement": "Pre-Emergence Activity ECHCG", "setting": "[4]", "value": 100}, {"measurement": "Pre-Emergence Activity LOLPE", "setting": "Lolium perenne (LOLPE) [5]", "value": 100}, {"measurement": "Pre-Emergence Activity SETFA", "setting": "Setaria faberi (SETFA) [6]", "value": 100}, {"measurement": "Post-Emergence Activity ALOMY", "setting": "[7]", "value": 90}, {"measurement": "Post-Emergence Activity AVEFA", "setting": "Avena fatua (AVEFA) [8]", "value": 80}, {"measurement": "Post-Emergence Activity DIGSA", "setting": "[9]", "value": 100}, {"measurement": "Post-Emergence Activity ECHCG", "setting": "[10]", "value": 100}, {"measurement": "Post-Emergence Activity LOLPE", "setting": "Lolium perenne (LOLPE) [11]", "value": 70}, {"measurement": "Post-Emergence Activity SETFA", "setting": "Setaria faberi (SETFA) [12]", "value": 100}]}
{"smiles": "Cc1[se]c(-c2ccc(Cl)cc2)nc1C1C(=O)C(C)(C)OC(C)(C)C1=O", "note": "[Compound T16, 5-[2-(4-chlorophenyl)-5-methylselenazol-4-yl]-2,2,6,6-tetramethylpyran-3,5-dione]", "values": [{"measurement": "Pre-Emergence Activity ALOMY", "setting": "[1]", "value": 90}, {"measurement": "Pre-Emergence Activity AVEFA", "setting": "Avena fatua (AVEFA) [2]", "value": 50}, {"measurement": "Pre-Emergence Activity DIGSA", "setting": "[3]", "value": 100}, {"measurement": "Pre-Emergence Activity ECHCG", "setting": "[4]", "value": 60}, {"measurement": "Pre-Emergence Activity LOLPE", "setting": "Lolium perenne (LOLPE) [5]", "value": 100}, {"measurement": "Pre-Emergence Activity SETFA", "setting": "Setaria faberi (SETFA) [6]", "value": 0}, {"measurement": "Post-Emergence Activity ALOMY", "setting": "[7]", "value": 70}, {"measurement": "Post-Emergence Activity AVEFA", "setting": "Avena fatua (AVEFA) [8]", "value": 70}, {"measurement": "Post-Emergence Activity DIGSA", "setting": "[9]", "value": 90}, {"measurement": "Post-Emergence Activity ECHCG", "setting": "[10]", "value": 100}, {"measurement": "Post-Emergence Activity LOLPE", "setting": "Lolium perenne (LOLPE) [11]", "value": 60}, {"measurement": "Post-Emergence Activity SETFA", "setting": "Setaria faberi (SETFA) [12]", "value": 90}]}
